Reference: patent US6586478B2, “Methods and compositions for improving sleep” (Cellegy Canada, priority 2000, dated 2003)

What was measured:
[1] = tested on: sleep disorders including PLMS; assay: Example 1, Subject 1: person with sleep disorders including PLMS; format: in vivo, human; settings: Subject 1, history before the GTN patch
Method: The subject was a person with a history of sleep disorders including PLMS for at least 4 years. Over this period the subject had five visits to a sleep laboratory, which confirmed their diagnosis of PLMS, and through which various treatments were devised. These included drug therapies with PAXIL/WELLBUTRIN, CLOMIPRAMINE, IMOVANE, DESIPPAMINE, ZOLOFT, TEMAZEPAM, TRYPTAN, and FLUVOXAMINE.
At this point, the subject was administered a 1.65 cm^2 GTN patch as described above in reference to Table 4. The patch was applied just before retiring at night. This was repeated for three consecutive nights. […] On the fourth night, the subject applied a 1.1 cm^2 GTN patch, and on the fifth night, a 0.825 cm^2 GTN patch.

[2] = Rate of drug delivery (release) from transdermal nitroglycerin patches; settings: after 8 hours, 0.83 cm^2 patch
Method: (§1) 3M MINITRAN transdermal nitroglycerin patches of 10 cm^2 and 20 cm^2 areas deliver plasma levels of 102 pg/mL and between 129 pg/mL and 310 pg/mL, respectively. The 3.3 cm^2 patch, with a total loading of 9 mg of nitroglycerin in each patch, has a mean rate of drug delivery of about […]. The two smaller patches (1.65 cm^2 and 0.825 cm^2) used in the studies described herein had areas of one half and one fourth the 3.33 cm^2 patch. Based on the ratios of patch surface area and assuming linearity in the rates of drug delivery, the estimated rates of delivery and extrapolated values of plasma levels of nitroglycerin for the three low or microdose patches are given in Table 1.
Nitroglycerin for the treatment of RLS, PLMS and sleep symptoms was provided in single dose transdermal patches packaged in individual foil pouches. Each single dose transdermal patch has a surface area of 0.83 cm^2, contains 2.25 mg of nitroglycerin, and releases the nitroglycerin at a rate of 0.025 mg/hour (0.75 mg/cm^2/24 hours). After 8 hours 85% of the nitroglycerin remains entrained in the adhesive substrate of the transdermal patch.

[3] = Plasma levels of nitroglycerin delivered from transdermal patches; format: in vivo
Method: as §1

Row | Structure (SMILES) | success of earlier drug therapies in treating the symptoms of the sleep disorder [1] | also measured
1 | CNCCCN1c2ccccc2CCc2ccccc21 [DESIPPAMINE] | None of the drug therapies were successful | –
2 | O=[N+]([O-])OCC(CO[N+](=O)[O-])O[N+](=O)[O-] [Nitroglycerin, nitroglycerin] | – | nitroglycerin remaining entrained in the adhesive substrate of the patch [2]: 85%; Plasma Level ([3]; 0.825 cm^2 patch, extrapolated from larger-size patches assuming linearity): 9^3 pg/mL; Plasma Level ([3]; 1.65 cm^2 patch, extrapolated from larger-size patches assuming linearity): 17^3 pg/mL; Plasma Level ([3]; 3.33 cm^2 patch, extrapolated from larger-size patches assuming linearity): 34^3 pg/mL; Plasma Level ([3]; 10 cm^2 patch): 102^1 pg/mL
3 | CN[C@H]1CC[C@@H](c2ccc(Cl)c(Cl)c2)c2ccccc21 [ZOLOFT] | None of the drug therapies were successful | –
4 | CN1C(=O)C(O)N=C(c2ccccc2)c2cc(Cl)ccc21 (centres unmarked) [TEMAZEPAM, temazepam] | None of the drug therapies were successful | –
5 | COCCCC/C(=N\OCCN)c1ccc(C(F)(F)F)cc1 [FLUVOXAMINE] | None of the drug therapies were successful | –
6 | CN(C)CCCN1c2ccccc2CCc2ccc(Cl)cc21 [CLOMIPRAMINE] | None of the drug therapies were successful | –
7 | CN1CCN(C(=O)OC2c3nccnc3C(=O)N2c2ccc(Cl)cn2)CC1 (centres unmarked) [IMOVANE] | None of the drug therapies were successful | –
